Literature values, collected in US12295926B1, “Modified release gamma-hydroxybutyrate formulations having improved pharmacokinetics” (Flamel Ireland Limited, priority 2022, dated 2025).
Like-named read-outs stand apart in the source and are kept apart here.

Legend:
plasma proteins = details: 3 mcg/mL to 300 mcg/mL
[1] = not given; remark: listed apart in the source
[2] = 4.5 g oral
CYP1A2 = target: T1, CYP1A2 (Homo sapiens, UniProt P05177); details: up to 3 mM (378 mcg/mL)
T1 sequence (P05177 1-516): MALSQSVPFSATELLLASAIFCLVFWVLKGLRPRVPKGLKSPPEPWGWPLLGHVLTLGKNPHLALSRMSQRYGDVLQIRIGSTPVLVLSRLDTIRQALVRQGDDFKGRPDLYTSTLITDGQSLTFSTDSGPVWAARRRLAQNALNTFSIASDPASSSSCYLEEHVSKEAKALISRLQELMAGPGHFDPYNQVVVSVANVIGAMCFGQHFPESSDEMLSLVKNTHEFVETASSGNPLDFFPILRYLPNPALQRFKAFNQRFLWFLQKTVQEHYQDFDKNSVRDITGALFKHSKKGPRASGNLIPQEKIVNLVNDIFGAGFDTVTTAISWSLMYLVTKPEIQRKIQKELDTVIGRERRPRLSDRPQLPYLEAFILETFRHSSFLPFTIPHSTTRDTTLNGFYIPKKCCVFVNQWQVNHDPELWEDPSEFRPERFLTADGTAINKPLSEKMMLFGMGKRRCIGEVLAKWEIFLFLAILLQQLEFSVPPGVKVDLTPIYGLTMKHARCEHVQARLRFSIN

CYP2C9 = CYP2C9 (Homo sapiens, UniProt P11712); details: up to 3 mM (378 mcg/mL)
CYP2C19 = CYP2C19 (Homo sapiens, UniProt P33261); details: up to 3 mM (378 mcg/mL)
CYP2D6 = CYP2D6 (Homo sapiens, UniProt P10635); details: up to 3 mM (378 mcg/mL)
CYP2E1 = CYP2E1 (Homo sapiens, UniProt P05181); details: up to 3 mM (378 mcg/mL)
CYP3A = details: up to 3 mM (378 mcg/mL)
[3] = 6 g per day with diclofenac 50 mg twice per day
[4] = 6 g per day with ibuprofen 800 mg four times per day
pregnant rats = details: 150, 350, or 1,000 mg/kg/day
pregnant rabbits = details: 300, 600, or 1,200 mg/kg/day
rats [5] = details: highest dose tested (1,000 mg/kg/day)
rats [6] = test system: rats
rat [7] = details: in vivo
male and female rats = details: 150, 350, or 1,000 mg/kg/day
rats [8] = details: 0, 100, 300, or 900 mg/kg/day
mouse = details: 2-year
rat [9] = details: 2-year

Sequence of CYP2C19 (P33261 whole entry): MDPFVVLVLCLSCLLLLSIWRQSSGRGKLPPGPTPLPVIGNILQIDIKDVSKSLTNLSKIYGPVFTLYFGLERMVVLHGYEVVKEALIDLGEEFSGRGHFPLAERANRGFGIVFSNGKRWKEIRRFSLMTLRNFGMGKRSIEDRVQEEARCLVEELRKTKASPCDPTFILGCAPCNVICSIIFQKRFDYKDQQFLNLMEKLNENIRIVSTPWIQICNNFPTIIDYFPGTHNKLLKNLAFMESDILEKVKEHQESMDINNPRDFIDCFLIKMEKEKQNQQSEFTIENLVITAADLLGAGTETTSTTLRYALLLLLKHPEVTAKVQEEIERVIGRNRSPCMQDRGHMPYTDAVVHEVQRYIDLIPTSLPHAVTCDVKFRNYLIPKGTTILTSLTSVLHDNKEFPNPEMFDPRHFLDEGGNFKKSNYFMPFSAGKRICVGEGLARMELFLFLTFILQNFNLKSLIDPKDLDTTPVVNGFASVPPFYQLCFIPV
Sequence of CYP2C9 (P11712 whole entry): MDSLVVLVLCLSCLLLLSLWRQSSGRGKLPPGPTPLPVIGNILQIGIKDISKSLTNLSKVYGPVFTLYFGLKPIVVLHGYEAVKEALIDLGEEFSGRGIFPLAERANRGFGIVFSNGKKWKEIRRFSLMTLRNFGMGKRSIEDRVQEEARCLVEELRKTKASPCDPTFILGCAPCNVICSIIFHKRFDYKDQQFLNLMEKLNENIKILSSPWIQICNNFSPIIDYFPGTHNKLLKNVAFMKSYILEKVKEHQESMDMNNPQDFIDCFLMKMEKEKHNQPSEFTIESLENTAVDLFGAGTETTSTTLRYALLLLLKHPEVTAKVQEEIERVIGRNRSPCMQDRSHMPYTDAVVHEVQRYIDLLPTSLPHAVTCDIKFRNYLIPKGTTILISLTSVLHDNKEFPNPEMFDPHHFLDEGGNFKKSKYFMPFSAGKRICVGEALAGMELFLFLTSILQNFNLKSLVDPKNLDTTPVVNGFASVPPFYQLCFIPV
Sequence of CYP2E1 (P05181 whole entry): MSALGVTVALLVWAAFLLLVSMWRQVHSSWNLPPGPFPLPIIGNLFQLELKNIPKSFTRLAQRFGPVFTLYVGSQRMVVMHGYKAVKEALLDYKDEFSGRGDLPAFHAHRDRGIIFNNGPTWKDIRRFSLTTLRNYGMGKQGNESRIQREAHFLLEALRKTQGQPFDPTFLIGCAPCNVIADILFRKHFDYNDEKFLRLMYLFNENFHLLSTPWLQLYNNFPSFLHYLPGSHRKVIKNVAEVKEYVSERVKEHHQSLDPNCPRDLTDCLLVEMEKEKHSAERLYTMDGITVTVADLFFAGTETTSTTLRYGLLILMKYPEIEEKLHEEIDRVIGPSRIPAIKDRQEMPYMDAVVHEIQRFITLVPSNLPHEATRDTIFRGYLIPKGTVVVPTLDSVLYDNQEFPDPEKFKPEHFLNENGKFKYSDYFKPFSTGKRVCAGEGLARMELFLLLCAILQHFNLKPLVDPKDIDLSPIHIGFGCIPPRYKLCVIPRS
Sequence of CYP2D6 (P10635 whole entry): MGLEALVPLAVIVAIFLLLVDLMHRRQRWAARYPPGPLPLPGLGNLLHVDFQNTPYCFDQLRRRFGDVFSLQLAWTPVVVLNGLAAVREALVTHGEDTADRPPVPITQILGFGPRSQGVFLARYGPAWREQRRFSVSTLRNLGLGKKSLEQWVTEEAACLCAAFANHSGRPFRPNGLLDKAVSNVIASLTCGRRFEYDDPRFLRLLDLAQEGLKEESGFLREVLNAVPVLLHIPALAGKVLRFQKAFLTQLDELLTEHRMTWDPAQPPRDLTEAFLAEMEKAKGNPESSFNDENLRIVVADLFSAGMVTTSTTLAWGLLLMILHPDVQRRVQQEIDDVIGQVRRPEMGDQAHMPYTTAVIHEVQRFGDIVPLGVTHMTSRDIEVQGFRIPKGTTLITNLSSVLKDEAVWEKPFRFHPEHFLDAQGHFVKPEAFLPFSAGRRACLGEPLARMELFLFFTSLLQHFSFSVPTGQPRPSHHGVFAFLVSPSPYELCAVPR

In the case of `O=C([O-])CCCO.[Na+]` [sodium oxybate, sodium 4-hydroxybutanoate], the “Apparent volume of distribution” value (in vivo) is listed as 0.19 to 0.384 L/kg, the Elimination half-life (in vivo) is listed as 30 to 60 min and the “Unchanged drug in human urine” value (within 6 to 8 hours after dosing) is listed as “less than 5%”. For the same compound, the “Bound to plasma proteins” value (plasma proteins) was “less than 1%”, the “AUC in cirrhotic patients vs normal hepatic function” value ([1]; 25 mg/kg oral) was “double” and the Apparent oral clearance ([1]; Child's Class A) was 4.5 mL/min/kg. For the same compound, the Apparent oral clearance ([1]; Child's Class C) was 4.1 mL/min/kg, the Apparent oral clearance ([1]; healthy adults) was 9.1 mL/min/kg and the “Gender differences in pharmacokinetics of GHB” value [2] was “no gender differences”. For the same compound, the “Inhibition of CYP1A2” value (CYP1A2) was “does not significantly inhibit”, the “Inhibition of CYP2C9” value (CYP2C9) was “does not significantly inhibit” and the “Inhibition of CYP2C19” value (CYP2C19) was “does not significantly inhibit”. The “Inhibition of CYP2D6” value (CYP2D6) was “does not significantly inhibit”, the “Inhibition of CYP2E1” value (CYP2E1) was “does not significantly inhibit” and the “Inhibition of CYP3A” value (CYP3A) was “does not significantly inhibit”. The “Systemic exposure to GHB on co-administration” value [3] was “no significant differences in systemic exposure to GHB”, the “Systemic exposure to GHB on co-administration” value [4] was “comparable systemic exposure to GHB” and the Developmental toxicity (pregnant rats) was “no clear evidence of developmental toxicity”. For the same compound, the Developmental toxicity (pregnant rabbits) was “no clear evidence of developmental toxicity”, the “Pre- and post-natal effects” value (rats [5]) was “increased stillbirths and decreased offspring postnatal viability and body weight gain” and the “Plasma exposure (AUC) relative to humans at the MRHD” value (rats [6]; highest dose tested) was 2 times. For the same compound, the Tumors (rats [6]; up to 1,000 mg/kg/day for 83 (males) or 104 (females) weeks) was “no increase in tumors”, the Bacterial gene mutation (bacteria) was “negative” and the Chromosomal aberration (mammalian cells) was “negative”. The Micronucleus (rat [7]) was “negative”, the Effects on fertility (male and female rats) was “no adverse effects on fertility” and the “Mortality in juvenile rats” value (rats [8]) was “mortality was observed at the two highest doses tested”.
For `O=C1CCCO1` [gamma-butyrolactone], the Carcinogenic activity (mouse) is listed as “no clear evidence of carcinogenic activity” and the Carcinogenic activity (rat [9]) is listed as “no clear evidence of carcinogenic activity”.
